Experimental data reported in US11382956B2, “Amylin analogues” (Zealand Pharma A/S, priority 2016, dated 2022).
Numbered stars: 1 amine (or outer) side, 2 acyl side, 3 side chain; on linkers, the order of the positions; unused ones are H or OH. Bridge positions count the residues as written; N and C are the ends. Square brackets hold non-standard residues; d marks the D form. Peptide text beside a SMILES is read from it. * marks the point of attachment. C20 diacid = O=C(O)CCCCCCCCCCCCCCCCCCC(=O)*; γGlu = O=C(O)[C@H](CCC(=O)[*:2])N[*:1]; Hyp = O=C(O)[C@@H]1C[C@@H](O)CN1; NMeI = CC[C@H](C)[C@H](NC)C(=O)O; Orn = NCCC[C@H](N)C(=O)O; Dab = NCC[C@H](N)C(=O)O; Sar = CNCC(=O)O

Key:
[1] = molecular target: T1, recombinant human calcitonin receptor (hCT-R) (Homo sapiens, UniProt P30988); test: hCT-R cAMP assay (AlphaScreen) in 1321N1 cells; format: cell-based; details: cAMP formation, 45 min stimulation
T1 construct: host or cells: human astrocytoma cell line 1321N1
T1 sequence (P30988 25-474): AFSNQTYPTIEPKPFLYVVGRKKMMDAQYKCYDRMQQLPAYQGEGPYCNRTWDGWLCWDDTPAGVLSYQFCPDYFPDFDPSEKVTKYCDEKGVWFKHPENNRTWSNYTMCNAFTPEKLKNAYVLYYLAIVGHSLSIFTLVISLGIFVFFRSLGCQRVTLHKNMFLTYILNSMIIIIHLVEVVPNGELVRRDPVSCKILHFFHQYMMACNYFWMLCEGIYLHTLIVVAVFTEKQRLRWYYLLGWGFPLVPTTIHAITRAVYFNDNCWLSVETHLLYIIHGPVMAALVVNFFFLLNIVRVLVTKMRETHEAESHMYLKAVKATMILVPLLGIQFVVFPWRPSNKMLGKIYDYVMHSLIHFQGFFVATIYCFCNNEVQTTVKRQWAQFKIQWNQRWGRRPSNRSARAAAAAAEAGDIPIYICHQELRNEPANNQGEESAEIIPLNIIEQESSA
Text: (§1) For the assessment of the in vitro activity of test peptides, cell lines expressing recombinant human calcitonin receptor (hCT-R) or recombinant human amylin 3 receptor (hAMYR3) in the background of the human astrocytoma cell line 1321N1 were purchased from DiscoveRx Corporation (Cat. No. 95-016106 and 95-0166C6). The hAMYR3 is a hetero-oligomer of the calcitonin receptor (Isoform 2; Gene ID 799) and RAMPS (Gene ID 10268) that forms when both genes are expressed in the same cell. The hCT-R cell line expresses only the recombinant human calcitonin receptor gene (Isoform 2; Gene ID 799). Upon activation of hCT-R or hAMYR3 by the test peptides the formation of cAMP is induced and was measured using the AlphaScreen® cAMP Assay kit from Perkin-Elmer (Cat. No. 6760635R).
(§2) Briefly, 1321N1 cells expressing hCT-R or hAMYR3 were seeded in 384-well microtiter plates (Falcon Optilux White, Cat.-No. 10448642) at 5,000 cells in […] growth medium per well (AssayComplete 1321N1 Cell Culture Kit, DiscoveRx Corp.), and incubated for 24 h at 37° C., 5% CO2. On the day of analysis growth medium was removed and the cells were stimulated by adding 10 μL of stimulation buffer (10 […], 0.1% BSA) containing increasing concentrations of test peptides, and incubation for 45 min at room temperature. The stimulation was stopped by adding 5.6 μL/well donor bead detection mix (5 mM Hepes pH7.4, 0.5% TWEEN 20, 0.1% BSA, 0.05 mg/mL donor beads, 62.5 nM biotinylated cAMP) and 4.5 μL/well acceptor bead solution (5 mM Hepes pH7.4, 0.5% TWEEN 20, 0.1% BSA, 0.05 mg/mL acceptor beads). After thorough mixing the plates were incubated in the dark for 1 h at room temperature and the cAMP content of the resulting cell lysates was estimated according to the AlphaScreen® cAMP Assay manufacturer's instructions. EC50 values were estimated by computer-aided curve fitting of results of at least 7 different compound concentrations.

[2] = molecular target: T2, recombinant human amylin 3 receptor (hAMYR3) (Homo sapiens, UniProt O60896+P30988); test: hAMYR3 cAMP assay (AlphaScreen) in 1321N1 cells; format: cell-based; details: cAMP formation, 45 min stimulation
T2 construct: host or cells: human astrocytoma cell line 1321N1
T2 sequence (P30988 25-474): T1 sequence (P30988 25-474)
T2 sequence (O60896 24-148 partner): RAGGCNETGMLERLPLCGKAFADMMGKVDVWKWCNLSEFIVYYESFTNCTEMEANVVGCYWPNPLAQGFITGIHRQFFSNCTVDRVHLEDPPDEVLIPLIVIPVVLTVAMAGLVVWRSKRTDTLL
Text: as §1, §2

[3] = Assessment of chemical stability in 40 mM buffers at 40° C. (RP-HPLC); format: physicochemical; details: 1 mg/mL
Experimental: Samples of each test peptide were dissolved in acetate buffer pH 4 and phosphate buffer pH 6 and 7 (all buffer 40 mM). The final peptide concentration was 1 mg/mL. Samples were placed in glass vials and incubated at 40° C. The samples were analyzed by RP-HPLC on a C8 column with gradient elution using a trifluoroacetic acid/acetonitrile/water eluent system. The area-percentage (area-%) of the main peak was determined by UV spectroscopy at 220 nm at each sampling time point.
The % degradation was calculated by subtracting the […].
The results of the chemical stability assessment after 3 days of incubation time are summarized as % degradation in Table 1 (below).
The results of the chemical stability assessment after 14 days of incubation time are summarized as % degradation in Table 2 (below).

Row | Compound | EC50 [1] | EC50 [2] | % degradation after 14 days at 40° C. pH4 acetate ([3]; acetate buffer pH 4, 14 days) | % degradation after 14 days at 40° C. pH6 phosphate ([3]; phosphate buffer pH 6, 14 days) | % degradation after 14 days at 40° C. pH7 phosphate ([3]; phosphate buffer pH 7, 14 days)
1 | CC[C@H](C)[C@@H](C(=O)N1CCC[C@H]1C(=O)N[C@@H](CO)C(=O)N[C@@H](CO)C(=O)N[C@H](C(=O)N[C@@H](CCC(=O)O)C(=O)N[C@H](C(=O)NCC(=O)N[C@@H](CO)C(=O)N[C@@H](CC(N)=O)C(=O)N[C@H](C(=O)N1C[C@H](O)C[C@H]1C(N)=O)[C@@H](C)O)C(C)C)[C@@H](C)O)N(C)C(=O)[C@H](C)NC(=O)CN(C)C(=O)[C@H](Cc1ccccc1)NC(=O)[C@H](CO)NC(=O)[C@H](CO)NC(=O)[C@H](CCCNC(=N)N)NC(=O)[C@H](CCC(N)=O)NC(=O)[C@H](CC(C)C)NC(=O)[C@H](Cc1ccccc1)NC(=O)[C@H](Cc1c[nH]cn1)NC(=O)[C@H](C)NC(=O)[C@H](CC(C)C)NC(=O)[C@H](CCCNC(=N)N)NC(=O)[C@H](CCC(=O)O)NC(=O)[C@@H](NC(=O)[C@H](C)NC(=O)[C@H](CCCN)NC(=O)[C@@H](NC(=O)[C@H](C)NC(=O)[C@@H](NC(=O)CNC(=O)[C@H](CC(=O)O)NC(=O)[C@H](CCCNC(=N)N)NC(=O)CC[C@H](NC(=O)CCCCCCCCCCCCCCCCCCC(=O)O)C(=O)O)[C@@H](C)O)[C@@H](C)O)[C@@H](C)O [Ref. 1, [19CD]-isoGlu-RDGTAT-Orn-ATERLAHFLQRSSF-Sar-A-Ile(Me)-PSSTEVGSNT-Hyp-NH2, reference compound] ({C20 diacid-γGlu}-RDGTAT[Orn]ATERLAHFLQRSSF[Sar]A[NMeI]PSSTEVGSNT[Hyp]-NH2) | 20.3 nM | 17.1 nM | – | – | –
2 | CC[C@H](C)[C@@H](C(=O)N[C@@H](CC(C)C)C(=O)N[C@@H](CO)C(=O)N[C@@H](CO)C(=O)N[C@H](C(=O)N[C@@H](CCC(=O)O)C(=O)N[C@H](C(=O)NCC(=O)N[C@@H](CO)C(=O)N[C@@H](CC(N)=O)C(=O)N[C@H](C(=O)N1CCC[C@H]1C(N)=O)[C@@H](C)O)C(C)C)[C@@H](C)O)N(C)C(=O)[C@H](C)NC(=O)CN(C)C(=O)[C@H](Cc1ccccc1)NC(=O)[C@H](CO)NC(=O)[C@H](CO)NC(=O)[C@H](CCCNC(=N)N)NC(=O)[C@H](Cc1c[nH]cn1)NC(=O)[C@H](CC(C)C)NC(=O)[C@H](Cc1ccccc1)NC(=O)[C@H](Cc1c[nH]cn1)NC(=O)[C@H](C)NC(=O)[C@H](CC(C)C)NC(=O)[C@H](CCCNC(=N)N)NC(=O)[C@H](CCC(=O)O)NC(=O)[C@@H](NC(=O)[C@H](C)NC(=O)[C@@H]1CCCNC(=O)C[C@H](NC(=O)[C@H](CCCNC(=N)N)NC(=O)CC[C@H](NC(=O)CCCCCCCCCCCCCCCCCCC(=O)O)C(=O)O)C(=O)NCC(=O)N[C@@H]([C@@H](C)O)C(=O)N[C@@H](C)C(=O)N[C@@H]([C@@H](C)O)C(=O)N1)[C@@H](C)O [Compound 7, [19CD]-isoGlu-RD()GTAT-Orn()-ATERLAHFLHRSSF-Gly(Me)-A-Ile(Me)-LSSTEVGSNTP-NH2] ({C20 diacid-γGlu}-RDGTAT[Orn]ATERLAHFLHRSSF[Sar]A[NMeI]LSSTEVGSNTP-NH2; lactam 2-7) | 0.289 nM | 0.032 nM | – | – | –
3 | CC[C@H](C)[C@@H](C(=O)N[C@@H](CC(C)C)C(=O)N[C@@H](CO)C(=O)N[C@@H](CO)C(=O)N[C@H](C(=O)N[C@@H](CCC(=O)O)C(=O)N[C@H](C(=O)NCC(=O)N[C@@H](CO)C(=O)N[C@@H](CC(N)=O)C(=O)N[C@H](C(=O)N1C[C@H](O)C[C@H]1C(N)=O)[C@@H](C)O)C(C)C)[C@@H](C)O)N(C)C(=O)[C@H](C)NC(=O)CN(C)C(=O)[C@H](Cc1ccccc1)NC(=O)[C@H](CO)NC(=O)[C@H](CO)NC(=O)[C@H](CCCNC(=N)N)NC(=O)[C@H](CCC(N)=O)NC(=O)[C@H](CC(C)C)NC(=O)[C@H](Cc1ccccc1)NC(=O)[C@H](Cc1c[nH]cn1)NC(=O)[C@H](C)NC(=O)[C@H](CC(C)C)NC(=O)[C@H](CCCNC(=N)N)NC(=O)[C@H](CCC(=O)O)NC(=O)[C@@H](NC(=O)[C@H](C)NC(=O)[C@@H]1CC(=O)NCC[C@H](NC(=O)[C@H](CCCNC(=N)N)NC(=O)CC[C@H](NC(=O)CCCCCCCCCCCCCCCCCCC(=O)O)C(=O)O)C(=O)NCC(=O)N[C@@H]([C@@H](C)O)C(=O)N[C@@H](C)C(=O)N[C@@H]([C@@H](C)O)C(=O)N1)[C@@H](C)O [Compound 46, [19CD]-isoGlu-R-Dab()-GTATD()ATERLAHFLQRSSF-Gly(Me)-A-Ile(Me)-LSSTEVGSNT-Hyp-NH2] ({C20 diacid-γGlu}-R[Dab]GTATDATERLAHFLQRSSF[Sar]A[NMeI]LSSTEVGSNT[Hyp]-NH2; lactam 2-7) | 7.5 nM | 5.5 nM | – | – | –
4 | CC[C@H](C)[C@@H](C(=O)N[C@@H](CC(C)C)C(=O)N[C@@H](CO)C(=O)N[C@@H](CO)C(=O)N[C@H](C(=O)N[C@@H](CCC(=O)O)C(=O)N[C@H](C(=O)NCC(=O)N[C@@H](CO)C(=O)N[C@@H](CC(N)=O)C(=O)N[C@H](C(=O)N1C[C@H](O)C[C@H]1C(N)=O)[C@@H](C)O)C(C)C)[C@@H](C)O)N(C)C(=O)[C@H](C)NC(=O)CN(C)C(=O)[C@H](Cc1ccccc1)NC(=O)[C@H](CO)NC(=O)[C@H](CO)NC(=O)[C@H](CCCNC(=N)N)NC(=O)[C@H](CCC(N)=O)NC(=O)[C@H](CC(C)C)NC(=O)[C@H](Cc1ccccc1)NC(=O)[C@H](Cc1c[nH]cn1)NC(=O)[C@H](C)NC(=O)[C@H](CC(C)C)NC(=O)[C@H](CCCNC(=N)N)NC(=O)[C@H](CCC(=O)O)NC(=O)[C@@H](NC(=O)[C@H](C)NC(=O)[C@@H]1CC(=O)NCCC[C@H](NC(=O)[C@H](CCCNC(=N)N)NC(=O)CC[C@H](NC(=O)CCCCCCCCCCCCCCCCCCC(=O)O)C(=O)O)C(=O)NCC(=O)N[C@@H]([C@@H](C)O)C(=O)N[C@@H](C)C(=O)N[C@@H]([C@@H](C)O)C(=O)N1)[C@@H](C)O [Compound 47, [19CD]-isoGlu-R-Orn()-GTATD()ATERLAHFLQRSSF-Gly(Me)-A-Ile(Me)-LSSTEVGSNT-Hyp-NH2] ({C20 diacid-γGlu}-R[Orn]GTATDATERLAHFLQRSSF[Sar]A[NMeI]LSSTEVGSNT[Hyp]-NH2; lactam 2-7) | 10.8 nM | 7.7 nM | – | – | –
5 | N-α-[(S)-4-carboxy-4-(19-carboxynonadecanoylamino)butyryl]-[Arg1,Glu14,His17,Pro37]-pramlintide [NN96, reference compound] | – | – | 3.0% | 10.1% | 33.2%
